Results from US7820689B2, “Methods and compositions for preventing or treating cardiovascular disease” (priority 2006, dated 2010).

Key:
[1] = system: TNF-α production from the THP-1 cell culture after LPS stimulation; test: LPS-induced TNF-α production in PMA-differentiated THP-1 macrophage culture (ELISA); assay type: cell-based, human; conditions: for TNF-α production after LPS: 1 h before 100 ng/mL LPS, 24 h; for TNFα in medium: LPS 100 ng/mL, LPS alone 8.02±0.42
Procedure: (§1) THP-1 cells were grown in the RPMI-1640 medium containing 10% fetal bovine serum at 37° C. in 5% CO2. The cells were differentiated to macrophages after treatment of the culture with 100 nM PMA for 24 hours. The cell suspension (5×10^5) was added in 0.5 mL into each well of the tissue culture plates. For each experiment, naloxone was prepared immediately before use. LPS was dissolved in sterile water and stored at −70° C. in aliquots. LDL was isolated from human endotoxin-free heparin plasma and was oxidized using CuSO4. In brief, LDL (1 mL, 1 mg/mL) was dialyzed in 500 mL phosphate-buffered saline (PBS, pH 7.4) overnight. Copper sulfate was added to a final concentration of 5 μM, and the LDL was allowed to oxidize at room temperature for 24 hours.
The TNF-α level in the supernatant was determined by ELISA.
(§2) The supernatants were harvested and the TNF-α, IL-6, and MCP-1 levels were determined by ELISA. Superoxide production in the THP-1 cell culture was measured by lucigenin-enhanced chemiluminescence as described previously (Khadour F H, Panas D, Ferdinandy P, et al. Am J Physiol Heart Circ Physiol, 28:H1108-15 2002). LPS-treated THP-1 cells were treated with PBS containing 1.25 mM lucigenin, and counts were obtained for a 10-minute period in a luminometer (Berthold Technologies, Germany) as relative light units (RLU) emitted. Background counts determined in cell-free preparations were subtracted. Superoxide levels were reported as RLU per 10 minutes and were normalized to the volume (mL) of cell suspension added (i.e., RUL/10 min/mL).
To investigate the DM effect on macrophage activation, determined the effective DM concentrations were first needed. In a pilot experiment, the effective DM concentration that inhibited TNF-α production from macrophages was examined. […] The THP-1 cell culture was pretreated for 1 hour with various concentrations of DM (1-10^−8 μM) prior to treatment with 100 ng/mL LPS for 24 hours. The TNF-α level in the supernatant was determined by ELISA. […] One μM DM could reduce TNF-α production up to 44 percent in the THP-1 cell culture after LPS stimulation (Table 3). Therefore, subsequent experiments were performed with these effective DM concentrations (0.01, 0.1, and 1 μM).

[2] = system: TNF-α release from THP-1 cells after oxLDL stimulation; test: oxLDL-induced TNF-α release in THP-1 macrophage culture (ELISA); assay type: cell-based, human; conditions: for TNF-α in medium: oxLDL, oxLDL alone 2.64±0.61; for TNFα in medium: oxLDL 10 μg/mL, oxLDL alone 1.70±0.06
Procedure: as §1, §2

[3] = system: IL-6 release from THP-1 cells after oxLDL stimulation; test: oxLDL-induced IL-6 release in THP-1 macrophage culture (ELISA); assay type: cell-based, human
Procedure: as §1, §2

THP-1 cells = test: MTT cell viability assay; assay type: cell-based, human; conditions: with or without LPS
Procedure: Cell viability was determined with the 3 (4,5-dimethylthiazol-2-yl) 2,5-diphenyltetrazolium bromide (MTT) assay in each treatment group described above. Briefly, fresh medium was added to cells together with 10% MTT (5 mg/mL). Each plate was maintained at 37° C. for 2 hours and subsequently formazan crystals were dissolved in DMSO. Absorbance was read at a wavelength of 550 nm using a SPECTRAmax PLUS^384 spectrophotometer (Molecular Devices, CA, USA).

[4] = Serum lipid levels in apoE-deficient mice on high cholesterol diet; assay type: in vivo
Procedure: ApoE-deficient mice were fed with a high cholesterol diet containing 21% fat and 0.15% cholesterol (PMI LabDiet 40097, Richmond, Ind., USA) from 8-17 weeks of age. […] After completing the treatment, blood samples were collected by direct heart puncture when sacrificing the animals. The serum levels of total cholesterol, LDL, HDL, and triglyceride were measured by enzymatic methods using an automatic analyzer (Model 747, Hitachi Ltd. Co., Tokyo, Japan). The aorta was dissected from the aortic valve to the iliac bifurcation. To identify lipid-rich atherosclerotic lesions, the aorta was rinsed in 50% isopropanol for 2 minutes, incubated in 0.67% Oil-Red-O for 15 minutes, and washed by 10% isopropanol for 2 minutes. Using a dissection microscope, the area of each atherosclerotic lesion was measured with Image Pro Plus software (Version 3.0.1; Media Cybernetics, Inc, Silver Spring, Md., USA) and expressed as percentage of atherosclerotic area/total area of the aorta.

C57BL/6 mice = test: Carotid artery ligation vascular remodeling model, morphometry; assay type: in vivo; conditions: for neointima/media (N/M) ratio: 28 days after surgery, controls 1.4±0.6; for lumen area / neointima area: 28 days; for lumen area: PBS 12859±7258; for neointima area: PBS 33623±9377
Description: Adult C57BL/6 mice (8-12 weeks) were anesthetized by intraperitoneal injection of sodium pentobarbital. The left common carotid artery was isolated and ligated completely with a 6-0 silk suture near the carotid bifurcation. […] After completing the treatment the animals were sacrificed and the segment of the left common carotid artery just proximal to the ligation was excised, fixed in 4% paraformaldehyde, and embedded in paraffin. Five transverse sections per animal were cut at 100 μm intervals and stained with hematoxylin-eosin. The borders of the internal lumen, internal elastic lamina (IEL), and external elastic lamina (EEL) were traced on a digitizing board using Meta Imaging Series 5.0 software ([…].). The luminal, IEL, and EEL areas were measured. The neointima area was calculated by subtracting the luminal area from the IEL area, and the media area was calculated by subtracting the IEL area from the EEL area. The total vascular area was represented by EEL area. The ratio of neointima to media area (N/M ratio) was calculated. Average values were obtained from morphometric analysis of each section of the animal.
Data were given as mean±SD. The Mann-Whitney U test was used to compare continuous variables between the two groups. […] All statistical analyses were performed using SPSS 12.0 (SPSS Inc. Chicago, Ill., USA). The statistical significance level was set at P<0.05, two-tailed.

[5] = system: TNF-α production from the THP-1 cell culture after LPS stimulation; test: LPS-induced TNF-α production in PMA-differentiated THP-1 macrophage culture (ELISA); assay type: cell-based, human; conditions: for TNF-α in medium: LPS, LPS alone 8.85±0.81; for TNF-α production after LPS: 1 h before 100 ng/mL LPS, 24 h

COc1ccc2c(c1)[C@]13CCCC[C@@H]1[C@H](C2)N(C)CC3 [DM, (+)-3-methoxy-17-methyl-9α,13α,14α-morphinan]
TNF-α in medium ([1]; DM 0.01 μM pretreatment, LPS, LPS alone 8.85±0.81): 6.93 ± 0.76 ng/mL | TNF-α production after LPS ([1]; DM pretreatment 1 μM): 56 ± 10 % control | TNF-α production after LPS ([1]; DM pretreatment 10^−2 μM): 74 ± 4 % control | TNF-α production after LPS ([1]; DM pretreatment 10^−6 μM): 83 ± 3 % control | reduction of TNF-α production ([1]; One μM DM, THP-1 cell culture after LPS stimulation): up to 44% | most effective DM concentrations that suppressed macrophage TNF-α production ([1]; THP-1, after LPS stimulation): 0.01 to 1 µM | TNF-α in medium ([2]; DM 0.01 μM pretreatment): 1.80 ± 0.53 ng/mL | TNF-α in medium ([2]; DM 0.1 μM pretreatment): 1.75 ± 0.33 ng/mL | TNF-α in medium ([2]; DM 1 μM pretreatment): 1.77 ± 0.42 ng/mL | IL-6 in medium ([3]; DM 0.01 μM pretreatment, oxLDL alone 2.46±1.20): 1.40 ± 0.58 ng/mL | IL-6 in medium ([3]; DM 0.1 μM pretreatment, oxLDL alone 2.46±1.20): 1.28 ± 0.64 ng/mL | IL-6 in medium ([3]; DM 1 μM pretreatment, oxLDL alone 2.46±1.20): 1.33 ± 0.67 ng/mL | cell viability (MTT) (THP-1 cells; 0.01, 0.1, or 1 μM DM): no significant changes of the cell viability | total cholesterol, triglyceride, LDL, and HDL levels ([4]; DM treatment for 10 weeks vs controls): no significant differences | neointima/media (N/M) ratio (C57BL/6 mice; DM 5 mg/kg/day 4 weeks, P=NS): 1.1±0.7 | neointima/media (N/M) ratio (C57BL/6 mice; DM 10 mg/kg/day 4 weeks): 0.7±0.3 | neointima/media (N/M) ratio (C57BL/6 mice; DM 20 mg/kg/day 4 weeks): 0.4±0.2 | neointima/media (N/M) ratio (C57BL/6 mice; DM 40 mg/kg/day 4 weeks): 0.5±0.2 | TNF-α in medium ([5]; DM 0.1 μM pretreatment): 6.42 ± 0.73 ng/mL | TNF-α in medium ([5]; DM 1 μM pretreatment): 5.85 ± 1.12 ng/mL | TNF-α production after LPS ([5]; DM pretreatment 10^−1 μM): 72 ± 2 % control | TNF-α production after LPS ([5]; DM pretreatment 10^−4 μM): 81 ± 9 % control | TNF-α production after LPS ([5]; DM pretreatment 10^−8 μM): 95 ± 7 % control

C=CCN1CC[C@]23c4c5ccc(O)c4O[C@H]2C(=O)CC[C@@]3(O)[C@H]1C5 [Naloxone, 17-allyl-4,5α-epoxy-3,14-dihydroxymorphinan-6-one]
TNFα in medium ([1]; 0.1 μM pretreatment): 4.10 ± 0.37 ng/mL | TNFα in medium ([1]; 1 μM pretreatment): 4.41 ± 0.36 ng/mL | reduction of TNFα production ([1]; 0.01-1 μM, THP1 cell culture after LPS stimulation): 50% | TNFα in medium ([2]; 0.01 μM pretreatment): 0.85 ± 0.12 ng/mL | TNFα in medium ([2]; 0.1 μM pretreatment): 0.62 ± 0.04 ng/mL | TNFα in medium ([2]; 1 μM pretreatment): 0.60 ± 0.05 ng/mL | IL-6 in medium ([3]; 0.01 μM pretreatment, oxLDL alone 1.51±0.08): 1.05 ± 0.03 ng/mL | IL-6 in medium ([3]; 0.1 μM pretreatment, oxLDL alone 1.51±0.08): 1.01 ± 0.01 ng/mL | IL-6 in medium ([3]; 1 μM pretreatment, oxLDL alone 1.51±0.08): 1.05 ± 0.07 ng/mL | cell viability (MTT) (THP-1 cells; 0.01, 0.1, or 1 μM naloxone): no significant changes of the cell viability | total cholesterol, triglyceride, LDL, and HDL levels ([4]; naloxone 10, 20, 25 mg/kg/day i.p. 10 weeks vs PBS): no significant differences | lumen area (C57BL/6 mice; 10 mg/kg/day): 24475±5261 μm^2 | neointima area (C57BL/6 mice; 10 mg/kg/day): 20052±4372 μm^2 | lumen area (C57BL/6 mice; 20 mg/kg/day): 26452±9024 μm^2 | neointima area (C57BL/6 mice; 20 mg/kg/day): 14233±4040 μm^2 | lumen area (C57BL/6 mice; 25 mg/kg/day): 29650±5643 μm^2 | neointima area (C57BL/6 mice; 25 mg/kg/day): 13865±3494 μm^2 | Media area regression coefficient (naloxone) (C57BL/6 mice; Naloxone 10 mg/kg/day): 2950 | Neointima area regression coefficient (naloxone) (C57BL/6 mice; Naloxone 10 mg/kg/day): −13951 | Total area regression coefficient (naloxone) (C57BL/6 mice; Naloxone 10 mg/kg/day): −11000 | Lumen area regression coefficient (naloxone) (C57BL/6 mice; Naloxone 10 mg/kg/day, Area = B1 + B2 (Naloxone) + B3 (Distance (mm))): 12016 | Lumen area regression coefficient (naloxone) (C57BL/6 mice; Naloxone 20 mg/kg/day): 14033 | Media area regression coefficient (naloxone) (C57BL/6 mice; Naloxone 20 mg/kg/day): 10001 | Neointima area regression coefficient (naloxone) (C57BL/6 mice; Naloxone 20 mg/kg/day): −19584 | Total area regression coefficient (naloxone) (C57BL/6 mice; Naloxone 20 mg/kg/day): −9582 | Lumen area regression coefficient (naloxone) (C57BL/6 mice; Naloxone 25 mg/kg/day): 16993 | Media area regression coefficient (naloxone) (C57BL/6 mice; Naloxone 25 mg/kg/day): 8112 | Neointima area regression coefficient (naloxone) (C57BL/6 mice; Naloxone 25 mg/kg/day): −20380 | Total area regression coefficient (naloxone) (C57BL/6 mice; Naloxone 25 mg/kg/day): −12267 | influence of naloxone treatment in regression model of carotid remodeling (C57BL/6 mice; multiple regression, independent of the distance to ligation): had a statistically significant influence on the lumen, neointima, and total vascular areas | TNFα in medium ([5]; 0.01 μM pretreatment, LPS 100 ng/mL, LPS alone 8.02±0.42): 4.28 ± 0.39 ng/mL | most effective naloxone concentration range ([5]; inhibition of TNF-α production, THP-1, LPS): 0.01 to 1 µM | TNF-α production after LPS ([5]; naloxone pretreatment 1 μM): 55 ± 2 % control | TNF-α production after LPS ([5]; naloxone pretreatment 10^−1 μM): 51 ± 6 % control | TNF-α production after LPS ([5]; naloxone pretreatment 10^−2 μM): 53 ± 6 % control | TNF-α production after LPS ([5]; naloxone pretreatment 10^−3 μM): 67 ± 3 % control | TNF-α production after LPS ([5]; naloxone pretreatment 10^−4 μM): 74 ± 7 % control | TNF-α production after LPS ([5]; naloxone pretreatment 10^−5 μM): 93 ± 4 % control | TNF-α production after LPS ([5]; naloxone pretreatment 10^−6 μM): 90 ± 10 % control
